Consider nine compounds from publication PMC6060096, “Novel 3D Structure Based Model for Activity Prediction and Design of Antimicrobial Peptides” (Scientific Reports, 2018).

Values after ≈ are worked out from the molar mass of the structure shown. Residues, ends and D or L forms follow the SMILES beside them. Some results are limits rather than exact numbers.

Common to all, as to format: cell-based
For experiment [1], the system named is Staphylococcus aureus (CMCC(B)26003). Description: microbe, parasite or virus in culture. Here is the method:
(§1) The experimentally determined strains are as follows: Listeria monocytogenes (ATCC 19115), Staphylococcus aureus (CMCC(B)26003), Bacillus subtilis (CMCC(B)63501), Escherichia coli (CMCC(B) 44102), Pseudomonas aeruginosa (CMCC(B)10104), Enterococcus faecalis (clinical strains) from China Pharmaceutical University Microbiology Laboratory. Minimal inhibitory concentration(MIC) of peptides were determined using broth microdilution method. Two-fold serial dilutions of eight peptides were prepared from 1024.0 to 1.0 μg/ml in 96-well microtiter plate (100.0 μl of each well). Then peptide dilutions were mixed with LB broth and bacterial culture (100.0 μl) containing 2.0 × 10^5 CFU/ml. Final peptide concentrations ranged from 0.5 to 512.0 μg/ml. The final bacterial concentration was approximately 1.0 × 10^5 CFU/ml. Positive controls were incubated with Cefuroxime instead of peptide, at concentrations from 0.5 to 512.0 μg/ml. Negative and blank controls were incubated, respectively, with sterile deionized water or only LB broth. Microtiter plates were incubated at 37 °C for 24 h under normal atmospheric conditions. OD600 was measured using a microplate spectrophotometer (Multiskan GO, Thermo Scientific, USA). MIC was recorded as the endpoint where no difference of OD600 could be detected with respect to the blank LB broth. MIC assays were performed three times for all strains.

Experiment [2] has as its system Bacillus subtilis (CMCC(B)63501). Put plainly: microbe, parasite or virus in culture. Here is the method:
as §1

Experiment [3] deals with Listeria monocytogenes (ATCC 19115). Description: microbe, parasite or virus in culture. Here is the method:
as §1

In experiment [4] the test system is Enterococcus faecalis (clinical strains). Put plainly: MIC, broth microdilution. The settings on record: LB broth, ~1.0 × 10^5 CFU/ml, 0.5 to 512.0 μg/ml, 37 °C, 24 h, OD600, performed three times. Here is the method: as §1
Background: Dilution methods test growth across graded concentrations, often in twofold steps.

Experiment [5] relates to Escherichia coli (CMCC(B) 44102). Description: microbe, parasite or virus in culture. Here is the method:
as §1

The test system of experiment [6] is Pseudomonas aeruginosa (CMCC(B)10104). Description: microbe, parasite or virus in culture. Here is the method:
as §1

Regarding `CC[C@H](C)[C@H](NC(=O)[C@H](CCCNC(=N)N)NC(=O)[C@H](CCCNC(=N)N)NC(=O)[C@H](Cc1c[nH]c2ccccc12)NC(=O)[C@@H](N)Cc1ccccc1)C(=O)N[C@@H](CCCNC(=N)N)C(=O)N[C@H](C(=O)N[C@H](C(=O)N1CCC[C@H]1C(=O)N[C@@H](Cc1c[nH]c2ccccc12)C(=O)N[C@H](C(=O)N[C@@H](CC(N)=O)C(=O)N1CCC[C@H]1C(=O)N1CCC[C@H]1C(=O)N[C@@H](Cc1ccccc1)C(=O)N[C@@H](CC(C)C)C(=O)N[C@@H](CCC(N)=O)C(=O)N[C@@H](CCC(N)=O)C(=O)N[C@H](C(N)=O)[C@@H](C)O)C(C)C)[C@@H](C)O)C(C)C` [FWRRIRVTPWVNPPFLQQT-NH2] (H-FWRRIRVTPWVNPPFLQQT-NH2), the “MIC Staphylococcus aureus” value in experiment [1] (CMCC(B)26003, 24 h) turned out to be 64 µg/mL (≈ 26.2 µM). Also, the “MIC Bacillus subtilis” value in experiment [2] (CMCC(B)63501, 24 h) came to 256 µg/mL (≈ 105 µM). The “MIC Listeria monocytogenes” value in experiment [3] (ATCC 19115, 24 h) came out at 64 µg/mL (≈ 26.2 µM).
Consider `CC(C)C[C@H](NC(=O)[C@H](Cc1ccccc1)NC(=O)[C@@H]1CCCN1C(=O)[C@@H]1CCCN1C(=O)[C@H](CC(N)=O)NC(=O)[C@@H](NC(=O)[C@@H](NC(=O)[C@@H]1CCCN1C(=O)[C@@H](N)[C@@H](C)O)C(C)C)C(C)C)C(=O)N[C@@H](CCC(N)=O)C(=O)N[C@@H](CCC(N)=O)C(=O)N[C@H](C(N)=O)[C@@H](C)O` [TPVVNPPFLQQT-NH2, reference compound] (H-TPVVNPPFLQQT-NH2), for which the “MIC Listeria monocytogenes” value in experiment [3] (ATCC 19115, 24 h) stood at 512 µg/mL (≈ 382 µM).
On to FLRRIRVTPVVNPPFLQQT-NH2, for which, in experiment [4], the “MIC Enterococcus faecalis” value was “— (“—” indicates that the peptide is inactive at 512 μg/ml.)”. Further, the “MIC Escherichia coli” value in experiment [5] (CMCC(B) 44102, broth microdilution, LB broth, ~1.0 × 10^5 CFU/ml, 0.5 to 512.0 μg/ml, 37 °C, 24 h, OD600, performed three times) was “— (“—” indicates that the peptide is inactive at 512 μg/ml.)”. The “MIC Staphylococcus aureus” value in experiment [1] (CMCC(B)26003, broth microdilution, LB broth, ~1.0 × 10^5 CFU/ml, 0.5 to 512.0 μg/ml, 37 °C, 24 h, OD600, performed three times) is “— (“—” indicates that the peptide is inactive at 512 μg/ml.)”. Also, the “MIC Bacillus subtilis” value in experiment [2] (CMCC(B)63501, broth microdilution, LB broth, ~1.0 × 10^5 CFU/ml, 0.5 to 512.0 μg/ml, 37 °C, 24 h, OD600, performed three times) is “— (“—” indicates that the peptide is inactive at 512 μg/ml.)”. The “MIC Pseudomonas aeruginosa” value in experiment [6] (CMCC(B)10104, broth microdilution, LB broth, ~1.0 × 10^5 CFU/ml, 0.5 to 512.0 μg/ml, 37 °C, 24 h, OD600, performed three times) was “— (“—” indicates that the peptide is inactive at 512 μg/ml.)”. Moreover, the “MIC Listeria monocytogenes” value in experiment [3] (ATCC 19115, broth microdilution, LB broth, ~1.0 × 10^5 CFU/ml, 0.5 to 512.0 μg/ml, 37 °C, 24 h, OD600, performed three times) is “— (“—” indicates that the peptide is inactive at 512 μg/ml.)”.
As for `CC[C@H](C)[C@H](NC(=O)[C@H](CCCNC(=N)N)NC(=O)[C@H](CCCNC(=N)N)NC(=O)[C@H](Cc1c[nH]c2ccccc12)NC(=O)[C@@H](N)Cc1ccccc1)C(=O)N[C@@H](CCCNC(=N)N)C(=O)N[C@H](C(=O)N[C@H](C(=O)N1CCC[C@H]1C(=O)N[C@H](C(=O)N[C@H](C(=O)N[C@@H](CC(N)=O)C(=O)N1CCC[C@H]1C(=O)N1CCC[C@H]1C(=O)N[C@@H](Cc1ccccc1)C(=O)N[C@@H](CC(C)C)C(=O)N[C@@H](CCC(N)=O)C(=O)N[C@@H](CCC(N)=O)C(=O)N[C@H](C(N)=O)[C@@H](C)O)C(C)C)C(C)C)[C@@H](C)O)C(C)C` [FWRRIRVTPVVNPPFLQQT-NH2] (H-FWRRIRVTPVVNPPFLQQT-NH2), in experiment [1] (CMCC(B)26003, 24 h), the “MIC Staphylococcus aureus” value was determined as 256 µg/mL (≈ 109 µM). In experiment [3] (ATCC 19115, 24 h), the “MIC Listeria monocytogenes” value worked out at 256 µg/mL (≈ 109 µM).
Regarding `CC[C@H](C)[C@H](NC(=O)[C@H](CCCNC(=N)N)NC(=O)[C@H](CCCNC(=N)N)NC(=O)[C@H](Cc1c[nH]c2ccccc12)NC(=O)[C@@H](N)Cc1ccccc1)C(=O)N[C@@H](CCCNC(=N)N)C(=O)N[C@H](C(N)=O)C(C)C` [FWRRIRV-NH2] (H-FWRRIRV-NH2), the “MIC Staphylococcus aureus” value in experiment [1] (CMCC(B)26003, 24 h) is 64 µg/mL (≈ 62.1 µM). In addition, the “MIC Bacillus subtilis” value in experiment [2] (CMCC(B)63501, 24 h) stood at 128 µg/mL (≈ 124 µM). Further, in experiment [3] (ATCC 19115, 24 h), the “MIC Listeria monocytogenes” value came to 32 µg/mL (≈ 31 µM).
Regarding `CC[C@H](C)[C@H](NC(=O)[C@H](CCCNC(=N)N)NC(=O)[C@H](CCCNC(=N)N)NC(=O)[C@H](Cc1c[nH]c2ccccc12)NC(=O)[C@@H](N)Cc1ccccc1)C(=O)N[C@@H](CCCNC(=N)N)C(=O)N[C@H](C(=O)N[C@H](C(=O)N1CCC[C@H]1C(=O)N[C@H](C(=O)N[C@H](C(=O)N[C@@H](CC(N)=O)C(=O)N1CCC[C@H]1C(=O)N[C@@H](Cc1c[nH]c2ccccc12)C(=O)N[C@@H](Cc1ccccc1)C(=O)N[C@@H](CC(C)C)C(=O)N[C@@H](CCC(N)=O)C(=O)N[C@@H](CCC(N)=O)C(=O)N[C@H](C(N)=O)[C@@H](C)O)C(C)C)C(C)C)[C@@H](C)O)C(C)C` [FWRRIRVTPVVNPWFLQQT-NH2] (H-FWRRIRVTPVVNPWFLQQT-NH2), the “MIC Escherichia coli” value in experiment [5] (CMCC(B) 44102, 24 h) worked out at 256 µg/mL (≈ 105 µM). In experiment [1] (CMCC(B)26003, 24 h), the “MIC Staphylococcus aureus” value stood at 32 µg/mL (≈ 13.1 µM). Besides, in experiment [2] (CMCC(B)63501, 24 h), the “MIC Bacillus subtilis” value was determined as 64 µg/mL (≈ 26.2 µM). Besides, the “MIC Pseudomonas aeruginosa” value in experiment [6] (CMCC(B)10104, 24 h) stood at 256 µg/mL (≈ 105 µM). Moreover, in experiment [3] (ATCC 19115, 24 h), the “MIC Listeria monocytogenes” value came out at 32 µg/mL (≈ 13.1 µM).
For `CO/N=C(\C(=O)N[C@@H]1C(=O)N2C(C(=O)O)=C(COC(N)=O)CS[C@H]12)c1ccco1` [Cefuroxime, reference compound], the MIC in experiment [4] (Enterococcus faecalis) is 16 µg/mL (≈ 37.7 µM); in experiment [5] (Escherichia coli, CMCC(B) 44102, broth microdilution, LB broth, ~1.0 × 10^5 CFU/ml, 0.5 to 512.0 μg/ml, 37 °C, 24 h, OD600, performed three times), 8 µg/mL (≈ 18.9 µM); in experiment [1] (Staphylococcus aureus, CMCC(B)26003, broth microdilution, LB broth, ~1.0 × 10^5 CFU/ml, 0.5 to 512.0 μg/ml, 37 °C, 24 h, OD600, performed three times) it was 4 µg/mL (≈ 9.43 µM); in experiment [2] (Bacillus subtilis, CMCC(B)63501, broth microdilution, LB broth, ~1.0 × 10^5 CFU/ml, 0.5 to 512.0 μg/ml, 37 °C, 24 h, OD600, performed three times), not above 0.5 µg/mL; in experiment [6] (Pseudomonas aeruginosa, CMCC(B)10104, broth microdilution, LB broth, ~1.0 × 10^5 CFU/ml, 0.5 to 512.0 μg/ml, 37 °C, 24 h, OD600, performed three times), more than 512 µg/mL; in experiment [3] (Listeria monocytogenes, ATCC19115, ATCC 19115, broth microdilution, LB broth, ~1.0 × 10^5 CFU/ml, 0.5 to 512.0 μg/ml, 37 °C, 24 h, OD600, performed three times) it was 4 µg/mL (≈ 9.43 µM).
As for `CC[C@H](C)[C@H](NC(=O)[C@H](CCCNC(=N)N)NC(=O)[C@H](CCCNC(=N)N)NC(=O)[C@H](CC(C)C)NC(=O)[C@@H](N)Cc1ccccc1)C(=O)N[C@@H](CCCNC(=N)N)C(=O)N[C@H](C(N)=O)C(C)C` [FLRRIRV-NH2] (H-FLRRIRV-NH2), the “MIC Staphylococcus aureus” value in experiment [1] (CMCC(B)26003, 24 h) was determined as 128 µg/mL (≈ 134 µM). Also, in experiment [3] (ATCC 19115, 24 h), the “MIC Listeria monocytogenes” value was 128 µg/mL (≈ 134 µM).
As for `CC[C@H](C)[C@H](NC(=O)[C@H](CCCNC(=N)N)NC(=O)[C@H](CCCNC(=N)N)NC(=O)[C@H](CC(C)C)NC(=O)[C@@H](N)Cc1ccccc1)C(=O)N[C@@H](CCCNC(=N)N)C(=O)N[C@H](C(=O)N[C@H](C(=O)N1CCC[C@H]1C(=O)N[C@@H](Cc1c[nH]c2ccccc12)C(=O)N[C@H](C(=O)N[C@@H](CC(N)=O)C(=O)N1CCC[C@H]1C(=O)N1CCC[C@H]1C(=O)N[C@@H](Cc1ccccc1)C(=O)N[C@@H](CC(C)C)C(=O)N[C@@H](CCC(N)=O)C(=O)N[C@@H](CCC(N)=O)C(=O)N[C@H](C(N)=O)[C@@H](C)O)C(C)C)[C@@H](C)O)C(C)C` [FLRRIRVTPWVNPPFLQQT-NH2] (H-FLRRIRVTPWVNPPFLQQT-NH2), in experiment [1] (CMCC(B)26003, 24 h), the “MIC Staphylococcus aureus” value was 256 µg/mL (≈ 108 µM). Besides, the “MIC Listeria monocytogenes” value in experiment [3] (ATCC 19115, 24 h) was 128 µg/mL (≈ 54.1 µM).
